Laboratory results from patent publication US7071165B2, “LHRH antagonist peptides” (Indiana University Research and Technology Corporation, priority 1995, dated 2006).
Where a name gives a salt, the structure may show the parent alone. Starred links: 1 amine or outer side, 2 acyl side, 3 side chain; linkers in the order of their positions; H or OH if unused. Non-standard residues stand in square brackets, D forms with d. Residues, ends and D or L forms follow the SMILES beside them. *: point of attachment. X2 = O=C([C@@H](Cc1ccc[n+](Cc2ccccc2)c1)N[*:1])[*:2]; dPhe(4-Cl) = N[C@H](Cc1ccc(Cl)cc1)C(=O)O; X3 = C[S+](C)CC[C@@H](N[*:1])C(=O)[*:2]; X4 = C[S+](C)CC[C@H](N[*:1])C(=O)[*:2]; d2Nal = N[C@H](Cc1ccc2ccccc2c1)C(=O)O; Lys(iPr) = CC(C)NCCCC[C@H](N)C(=O)O; NMeY = CN[C@@H](Cc1ccc(O)cc1)C(=O)O; d3Pal = N[C@H](Cc1cccnc1)C(=O)O; NHCH2CH2SO3H = O=S(=O)(O)CCN*; X1 = O=C(c1ccc[n+]([O-])c1)*; Sar = CNCC(=O)O

Each compound was assayed on ovulation in female rats (assay: Anti-ovulatory activity (AOA) in vivo assay in rats). Conditions: dose 1 μg per rat.
Set-up: species or system rat
Description: As used herein, “LHRH antagonist peptide” is intended to include peptides and peptide analogs which inhibit LHRH activity (i.e., has “LHRH antagonist activity”) in vivo or in vitro. Candidate LHRH antagonist peptides can be assayed, for example, in the animal model described in Corbin and Beattie, Endocrine Res. Commun. 2:1 (1975) (and see infra). In this assay, the LHRH antagonistic activity of a candidate compound is assayed by measuring the antiovulatory activity (AOA) of the compound in rats.
Anti-ovulatory activity (AOA) was measured by an in vivo assay in rats, as described in Corbin and Beattie, Endocrine Res. Commun. 2:1 (1975). In brief, female rats are injected with a candidate LHRH antagonist on the day of proestrus; in general, the candidate LHRH antagonist was dissolved in 0.1% DMSO. The ability of the candidate peptide to inhibit ovulation is measured by determining the number of rats which ovulate. A candidate peptide is considered to have LHRH antagonist qualities if it inhibits ovulation in at least 50% of the treated rats at a dose of 5 μg per rat. Preferred LHRH antagonists inhibit ovulation in at least 50% of rats at a dose of 2 μg per rat, more preferably at a dose of […], and still more preferably at a dose of 0.5 μg per rat.

Row | Compound | AO activity (AOA): rats which ovulate / rats treated
1 | Ac-D-Nal^1, 4-Cl-D-Phe^2, D-Pal^3, D-Pal(1-Bu)^6, Lys(iPr)^8, D-Ala^10-LHRH.TFA [Compound 3428] | 1/8@1 μg
2 | Ac-D-Nal^1, 4-Cl-D-Phe^2, D-Pal^3, D-Arg^6, Lys(COCH2S^+Me2)^8, D-Ala^10-LHRH.2TFA [Compound 4015] | 1/8@1.00
3 | Ac-D-Nal^1, 4-Cl-D-Phe^2, D-Pal^3, D-Lys(3-pyridineacetic)^6, Lys(iPr)^8, D-Ala^10-LHRH.TFA [Compound 3440] | 2/8@1 μg
4 | Ac-D-Nal^1, 4-Cl-D-Phe^2, D-Pal^3, Lys^5, D-Pal(iPr)^6, Lys(iPr)^8, D-Ala^10-LHRH.4TFA [Compound 3548] | 6/8@1 μg
5 | Ac-D-Nal^1, 4-Cl-D-Phe^2, D-Pal^3, D-Glu(Mop)^6, Lys(iPr)^8, D-Ala^10-LHRH.2TFA [Compound 3549] | 6/8@1 μg
6 | Ac-D-Nal^1, 4-Cl-D-Phe^2, D-Phe^2, D-Pal^3, Ala^5, D-Pal(iPr)^6, Lys(iPr)^8, D-Ala^10-LHRH.2TFA [Compound 3756] | 6/8@1.0
7 | Ac-D-Nal^1, 4-Cl-D-Phe^2, D-Pal^3, Lys(CNa)^5, D-Lys(CNa)^6, Lys(iPr)^8, D-Ala^10-LHRH.2TFA [Compound 3551] | 6/8@1 μg
8 | Ac-D-Nal^1, 4-Cl-D-Phe^2, D-Trp^3, D-Met(S^+CH2C6H5)^6, D-Ala^10-LHRH.2TFA [Compound 3961] | 3/8@1.00
9 | Ac-D-Nal^1, 4-Cl-D-Phe^2, D-Pal^3, D-Lys(iPr)^5, D-Lys(TFAc)^6, Lys(iPr)^8, D-Ala^10-LHRH.2TFA [Compound 3753] | 7/8@1.0
10 | Ac-D-Nal^1, 4-Cl-D-Phe^2, D-Pal^3, D-Lys(HomoPro)^6, Lys(iPr)^8, D-Ala^10-LHRH.TFA [Compound 3439] | 2/8@1 μg
11 | Ac-D-Nal^1, 4-Cl-D-Phe^2, D-Pal^3, D-Gln(iPr)^6, Lys(iPr)^8, D-Ala^10-LHRH.2TFA [Compound 3545] | 7/8@1 μg
12 | Ac-D-Nal^1, 4-Cl-D-Phe^2, D-Pal(N—O)^3, D-Pal(iPr)^6, Lys(iPr)^8, D-Ala^10-LHRH.2TFA [Compound 3882] | 6/8@1.0
13 | Ac-D-Nal^1,4-Cl-D-Phe^2,D-Pal^3,D-Lys(COCH2S^+Me2)^6, D-Ala^10-LHRH.2TFA [Compound 4014] | 0/8@1.00
14 | Ac-D-Nal^1, 4-Cl-D-Phe^2, D-Pal^3, D-Lys(Ala)^6, Lys(iPr)^8, D-Ala^10-LHRH.TFA [Compound 3771] | 7/8@1.0
15 | Ac-D-Nal^1, 4-Cl-D-Phe^2, D-Pal^3, N-Me-Tyr^5, D-Lys(Ac)^6, Lys(iPr)^8, D-Ala^10-LHRH.TFA [Compound 3829] | 8/8@1.0
16 | Ac-D-Nal^1, 4-Cl-D-Phe^2, D-Pal^3, D-Lys(Hippic)^6, Lys(iPr)^8, D-Ala^10-LHRH.TFA [Compound 3758] | 5/8@1.0
17 | Ac-D-Nal^1, 4-Cl-D-Phe^2, D-Pal^3, D-Met(S^+Me)^6, Met(S^+Me)^8, D-Ala^10-LHRH.2TFA [Compound 4016] | 6/8@1.00

Same assay, conditions: dose 2 μg per rat

Row | Compound | AO activity (AOA): rats which ovulate / rats treated
18 | Ac-D-Nal^1, 4-Cl-D-Phe^2, D-Trp^3, D-Met(S^+CH2C6H5)^6, D-Ala^10-LHRH.2TFA [Compound 3961] | 4/8@2.00

Same assay, conditions: dose 5 μg per rat

Row | Compound | AO activity (AOA): rats which ovulate / rats treated
19 | Ac-L-(or D)-9-anthryl-Ala^1, 4-Cl-D-Phe^2, D-Pal^3, D-Cit^6-Lys(iPr)^8, D-Ala^10-LHRH.TFA [Compound 3367] | 7/8@5 μg
20 | Ac-D-Nal-4-Cl-D-Phe^2, D-Pal^3, D-Lys(Ac-D-Nal^1 , 4-Cl-D-Phe^2, D-Pal^3, Ser)^6, Lys(iPr)^8, D-Ala^10-LHRH.TFA [Compound 3722] | 8/8@5.0

Same assay, conditions: rat, in vivo

Row | Compound | AO activity (AOA), in words
21 | Ac-D-Nal^1, 4-Cl-D-Phe^2, D-Trp^3, D-Lys(COCH2Br)^6, D-Ala^10-LHRH.TFA [Compound 3948] | low activity

These compounds were tested on rat mast cells (assay: Histamine release assay, rat mast cells). Conditions: not given.
Description: The term “histamine-releasing activity”, as used herein, refers to the tendency of a compound to release histamine when administered to a subject. The histamine-releasing activity of a compound can be measured with an in vitro assay (described in more detail, infra). […] Histamine-releasing activity was assayed by the method described in U.S. Pat. No. 4,851,385 to Roeske. Briefly, a suspension of rat mast cells was added to increasing concentrations of an LHRH antagonist peptide and incubated for 15 minutes at 37° C. The buffer contained 25 mM PIPES, pH 7.4, NaCl (119 mM), KCl (5 mM), NaOH (40 mM) glucose (5.6 mM), CaCl2 (1 mM) and 0.1% bovine serum albumin.

Row | Compound | Histamine-releasing activity, in words
22 | CC(=O)N(C)CC(=O)N[C@H](Cc1ccc(Cl)cc1)C(=O)N[C@H](Cc1ccc2ccccc2c1)C(=O)N[C@@H](CO)C(=O)N[C@@H](Cc1ccc(O)cc1)C(=O)N[C@H](Cc1ccc[n+](Cc2ccccc2)c1)C(=O)N[C@@H](CC(C)C)C(=O)N[C@@H](CCCCNC(C)C)C(=O)N1CCC[C@H]1C(=O)N[C@H](C)C(N)=O [Compound 3763, Ac-Sar^1,4-Cl-D-Phe^2, D-Nal^3, D-Pal(Bzl)^6, Lys(iPr)^8, D-Ala^10-LHRH.2TFA] (Ac-[Sar][dPhe(4-Cl)][d2Nal]SY[X2]L[Lys(iPr)]P[dA]-NH2) | very little histamine-releasing activity
23 | CC(=O)N[C@H](Cc1ccc2ccccc2c1)C(=O)N[C@H](Cc1ccc(Cl)cc1)C(=O)N[C@H](Cc1cccnc1)C(=O)N[C@@H](CO)C(=O)N(C)[C@@H](Cc1ccc(O)cc1)C(=O)N[C@H](CCCCNC(=O)c1ccc[n+]([O-])c1)C(=O)N[C@@H](CC(C)C)C(=O)N[C@@H](CCCCNC(C)C)C(=O)N1CCC[C@H]1C(=O)N[C@H](C)C(N)=O [Compound 3828, Ac-D-Nal^1,4-Cl-D-Phe^2, D-Pal^3, N-Me-Tyr^5, D-Lys(Onic)^8, Lys(iPr)^8, D-Ala^10-LHRH.TFA] (Ac-[d2Nal][dPhe(4-Cl)][d3Pal]S[NMeY][dK](X1)L[Lys(iPr)]P[dA]-NH2) | low histamine releasing activity
24 | CC(=O)N[C@H](Cc1ccc2ccccc2c1)C(=O)N[C@H](Cc1ccc(Cl)cc1)C(=O)N[C@H](Cc1cccnc1)C(=O)N[C@@H](CO)C(=O)N[C@@H](Cc1ccc(O)cc1)C(=O)N[C@H](CCC(=O)NCCS(=O)(=O)O)C(=O)N[C@@H](CC(C)C)C(=O)N[C@@H](CCCCNC(C)C)C(=O)N1CCC[C@H]1C(=O)N[C@H](C)C(N)=O [Compound 3361, Ac-D-Nal^1,4-Cl-D-Phe^2, D-Pal^3, D-Glu(Taurine)^6-Lys(iPr)^8, D-Ala^10-LHRH.TFA] (Ac-[d2Nal][dPhe(4-Cl)][d3Pal]SY[dE](NHCH2CH2SO3H)L[Lys(iPr)]P[dA]-NH2) | very low histamine release
25 | CC(=O)N[C@H](Cc1ccc2ccccc2c1)C(=O)N[C@H](Cc1ccc(Cl)cc1)C(=O)N[C@H](Cc1cccnc1)C(=O)N[C@@H](CO)C(=O)N[C@@H](Cc1ccc(O)cc1)C(=O)N[C@H](CCC(N)=O)C(=O)N[C@@H](CC(C)C)C(=O)N[C@@H](CCCCNC(C)C)C(=O)N1CCC[C@H]1C(=O)N[C@H](C)C(N)=O [Compound 3341, Ac-D-Nal^1,4-Cl-D-Phe^2, D-Pal^3, D-Gln^6-Lys(iPr)^8, D-Ala^10-LHRH.TFA] (Ac-[d2Nal][dPhe(4-Cl)][d3Pal]SY[dQ]L[Lys(iPr)]P[dA]-NH2) | very low histamine release
26 | CC(=O)N[C@H](Cc1ccc2ccccc2c1)C(=O)N[C@H](Cc1ccc(Cl)cc1)C(=O)N[C@H](Cc1c[nH]c2ccccc12)C(=O)N[C@@H](CO)C(=O)N[C@@H](Cc1ccc(O)cc1)C(=O)N[C@H](CC[S+](C)C)C(=O)N[C@@H](CC(C)C)C(=O)N[C@@H](CC[S+](C)C)C(=O)N1CCC[C@H]1C(=O)N[C@H](C)C(N)=O [Compound 3925, Ac-D-Nal^1,4-Cl-D-Phe^2, D-Trp^3, D-Met(S^+Me)^6, Met(S^+Me)^8, D-Ala^10-LHRH.2TFA] (Ac-[d2Nal][dPhe(4-Cl)][dW]SY[X3]L[X4]P[dA]-NH2) | low histamine release
27 | CC(=O)N[C@H](Cc1ccc2ccccc2c1)C(=O)N[C@H](Cc1ccc(Cl)cc1)C(=O)N[C@H](Cc1cccnc1)C(=O)N[C@@H](CO)C(=O)N[C@@H](Cc1ccc(O)cc1)C(=O)N[C@H](CC(N)=O)C(=O)N[C@@H](CC(C)C)C(=O)N[C@@H](CCCCNC(C)C)C(=O)N1CCC[C@H]1C(=O)N[C@H](C)C(N)=O [Compound 3342, Ac-D-Nal^1,4-Cl-D-Phe^2, D-Pal^3, D-Asn^6-Lys(iPr)^8, D-Ala^10-LHRH.TFA] (Ac-[d2Nal][dPhe(4-Cl)][d3Pal]SY[dN]L[Lys(iPr)]P[dA]-NH2) | very low histamine release
28 | CC(=O)N[C@H](Cc1ccc2ccccc2c1)C(=O)N[C@H](Cc1ccc(Cl)cc1)C(=O)N[C@H](Cc1cccnc1)C(=O)N[C@@H](CO)C(=O)N[C@@H](Cc1ccc(O)cc1)C(=O)N[C@@H](C(=O)N[C@@H](CC(C)C)C(=O)N[C@@H](CCCCNC(C)C)C(=O)N1CCC[C@H]1C(=O)N[C@H](C)C(N)=O)[C@H](C)O [Compound 3343, Ac-D-Nal^1,4-Cl-D-Phe^2, D-Pal^3, D-Thr^6-Lys(iPr)^8, D-Ala^10-LHRH.TFA] (Ac-[d2Nal][dPhe(4-Cl)][d3Pal]SY[dT]L[Lys(iPr)]P[dA]-NH2) | very low histamine release

Same assay, conditions: rat mast cells, 15 minutes at 37° C.

Row | Compound | Histamine release ED50
29 | Ac-D-Nal^1, 4-Cl-D-Phe^2, D-Pal^3, D-Cit^6-Lys(iPr)^8, ProNHEt^9-des-Gly^10-LHRH.TFA [Compound 3365] | 24 µg/mL
